# Laboratory results as given in patent US8785594B2, “Glycoproteins and glycosylated cells and a method for the preparation of the same” (Glycom A/S, priority 2007, dated 2014).
# Key:
# B16.BL6 melanoma cells [1] = test: Cell concentration and viability after conjugation, trypan blue (Example 11); format: cell-based
# Protocol: Two flasks (300 cm^2) (TPP, Trasadingen Switzerland) of confluent B16.BL6 melanoma cells grown in DMEM containing 10% fetal calf serum (without P/S) at 37.5° C. in 5% CO2 were used for this experiment. Growth medium was removed from the cells and 25 mL of PBS (without Mg^2+ and Ca^2+) (Gibco Invitrogen, Taastrup, Denmark) was added to the cells and immediately removed again. Another 10 mL of PBS was added and removed, before cells were harvested with Cell Dissociation Solution C5914 (Sigma-aldrich, Saint Louis, Mo.) (3 mL per flask) and transferred to 10 mL tubes (TPP, Trasadingen Switzerland). The cells were centrifuged for 5 minutes at 300 G at 20° C. and the supernatant was discarded. Subsequently, cells were washed in PBS (without Mg^2+ and Ca^2+), centrifuged as above and resuspended in PBS (without Mg^2+ and Ca^2+). The concentration of the cell suspension was determined.
# Five hundred mg of alpha-Gal trisaccharide-carbamate (9) was dissolved in PBS (without Mg^2+ and Ca^2+) (Gibco Invitrogen, Taastrup, Denmark) and passed through a sterile filter (Sartorius Minisart®, 0.20 my) (Sartorius, Goettingen, Germany). Eight different concentrations of conjugate were prepared. Two mL of each conjugate dilution was added to a flask with 2 mL of PBS (without Mg^2+ and Ca^2+) and 600 μl of cell suspension containing 10^6 B16.BL6 cells. The final volume of the flasks was 4.6 mL. The flasks were numbered 1 to 10. Flasks 1 and 10 contained no conjugate and served as controls. The cells were incubated with the conjugate for 3 hours and 25 minutes at 37° C. and 5% CO2.
# After conjugation, cells from conjugation reaction 1 (non-conjugated cells), 2, 4, 6 and 8 were harvested with 10 mL of Cell Dissociation Solution C5914 (Sigma-Aldrich, Saint Louis, Mo.) and transferred to 10 mL tubes (TPP, Trasadingen Switzerland). Cells were centrifuged for 5 minutes at 300 G at 20° C. and resuspended in PBS (without Mg^2+ and Ca^2+). Finally, cells were centrifuged as before and resuspended in 100 μl TBS with 1% BSA. Cell concentration and viability was determined by microscopic evaluation of trypan blue stained cell samples. Cells from conjugation reaction 3, 5, 7, 9 and 10 (non-conjugated cells), were harvested the following day as described above. The cells were centrifuged once for 5 minutes at 300 G at 20° C. and resuspended in 100 μl TBS with 1% BSA. Cell concentration and viability was determined by microscopic evaluation of trypan blue stained cell samples.
# B16.BL6 melanoma cells [2] = test: Scintillation, estimation of epitopes per cell (Example 14); format: cell-based
# Protocol: Radioactive labelled and regular trisaccharide probe was dissolved in HBSS containing D-glucose (without Mg^2+ and Ca^2+) (Gibco Invitrogen, Taastrup, Denmark) and passed through sterile filters (0.2 μm Supor® Acrodisc® 13, Gelman Sciences, Ann Arbor, Mich.). Four different concentrations of each “Glycom conjugate” (25 mg, 5 mg, 1 mg and 0.1 mg) were made. Twelve flasks (150 cm^2) (TPP, Trasadingen Switzerland) were prepared each containing a total of 10×10^6 B16.BL6 cells. The trisaccharide probe was added and the total volume was adjusted to 20 mL with HBSS containing D-glucose (without Mg^2+ and Ca^2+). The cells were incubated with the “Glycom conjugate” for 1.5 hours at 37° C. After conjugation, the supernatant from each flask was transferred to separate 50 mL tubes (TPP, Trasadingen Switzerland). The cells were harvested with Cell Dissociation Solution C5914 (5 mL per flask) (Sigma-Aldrich, Saint Louis, Mo. and transferred to the 50 mL tubes containing the supernatant. The cells were centrifuged for 3 minutes at 300 G at 20° C. and resuspended in 5 mL of PBS (without Mg^2+ and Ca^2+). This was repeated 3 times before cell concentration and viability was determined by microscopical evaluation of trypan blue stained cell samples.
# Cells conjugated with radioactive labelled trisaccharide probe were centrifuged for 5 minutes at 1000 G at 20° C. The supernatants were discharged and the remaining pellets were dried. Subsequently, the pellets were dissolved in 400 μl Mili-Q H2O and 1.5 mL of scintillation fluid was added. Standards for the scintillation were made by adding 500 pCi, 0.5 pCi and 0 pCi to the 3 samples of control cells. The samples were stored at room temperature for 3 days, before the cell suspensions were transferred to scintillation vials and counted.
# [3] = reaction 2, 200 mg conjugate, 10^6 cells, PBS, 3 h 25 min 37° C.
# [4] = reaction 3, 100 mg conjugate, measured 1 day after the conjugation procedure
# [5] = reaction 5, 20 mg conjugate, measured 1 day after the conjugation procedure
# [6] = reaction 7, 5 mg conjugate, measured 1 day after the conjugation procedure
# [7] = reaction 9, 1 mg conjugate, measured 1 day after the conjugation procedure
smiles,measurement,setting,value
"O=C1N[C@@H]2O[C@H](CO)[C@@H](O[C@@H]3O[C@H](CO)[C@H](O)[C@H](O[C@H]4O[C@H](CO)[C@H](O)[C@H](O)[C@H]4O)[C@H]3O)[C@H](O)[C@H]2O1 [Compound 9, alpha-Gal trisaccharide-carbamate]",Cell concentration,B16.BL6 melanoma cells [1]; [3],3.50 × 10^6 cells/mL
same,Cell viability,B16.BL6 melanoma cells [1]; [3],58.9%
same,Cell concentration,B16.BL6 melanoma cells [1]; [4],3.08 × 10^6 cells/mL
same,Cell viability,B16.BL6 melanoma cells [1]; [4],65.6%
same,Cell concentration,"B16.BL6 melanoma cells [1]; reaction 4, 50 mg conjugate",3.16 × 10^6 cells/mL
same,Cell viability,"B16.BL6 melanoma cells [1]; reaction 4, 50 mg conjugate",1.9%
same,Cell concentration,B16.BL6 melanoma cells [1]; [5],1.90 × 10^6 cells/mL
same,Cell viability,B16.BL6 melanoma cells [1]; [5],0.0%
same,Cell concentration,"B16.BL6 melanoma cells [1]; reaction 6, 10 mg conjugate",2.26 × 10^6 cells/mL
same,Cell viability,"B16.BL6 melanoma cells [1]; reaction 6, 10 mg conjugate",16.8%
same,Cell concentration,B16.BL6 melanoma cells [1]; [6],2.02 × 10^6 cells/mL
same,Cell viability,B16.BL6 melanoma cells [1]; [6],34.7%
same,Cell concentration,"B16.BL6 melanoma cells [1]; reaction 8, 2 mg conjugate",2.22 × 10^6 cells/mL
same,Cell viability,"B16.BL6 melanoma cells [1]; reaction 8, 2 mg conjugate",8.1%
same,Cell concentration,B16.BL6 melanoma cells [1]; [7],2.12 × 10^6 cells/mL
same,Cell viability,B16.BL6 melanoma cells [1]; [7],16.0%
O=[13C]1N[C@@H]2O[C@H](CO)[C@@H](O[C@@H]3O[C@H](CO)[C@H](O)[C@H](O[C@H]4O[C@H](CO)[C@H](O)[C@H](O)[C@H]4O)[C@H]3O)[C@H](O)[C@H]2O1 [radioactive labelled conjugate],Epitopes per cell,B16.BL6 melanoma cells [2]; 0.1 mg conjugate added,3.6 × 10^6
same,Epitopes per cell,B16.BL6 melanoma cells [2]; 1 mg conjugate added,28.3 × 10^6
same,Epitopes per cell,"B16.BL6 melanoma cells [2]; 5 mg conjugate added, cells from supernatant only",152.4 × 10^6
same,Epitopes per cell,"B16.BL6 melanoma cells [2]; 25 mg conjugate added, attached cells only",364.2 × 10^6
same,Relation of scintillation counts to dose of conjugate,B16.BL6 melanoma cells [2]; 0.1-25 mg,positive correlation
